Assay results: patent US5068325A, “4,5,7,8-tetrahydro-6H-thiazolo[5,4-d]azepines, their preparation and their use as pharmaceutical compositions” (priority 1988, dated 1991)

What was measured:
dopamine D2-receptors = dopamine D2-receptors (Rattus norvegicus, UniProt P61169); assay: affinity for dopamine D2-receptors by displacement experiments with [3H]-spiperone (rat striatum membranes); format: binding
Procedure: 1Determining the affinity for dopamine D2-receptors by displacement experiments with [^3 H]-spiperone (Modified Method of W. Billard et al., Life Sci. 35, 1885 (1984) and D. J. de Vries and P. M. Beart, Eur. J. Pharmacol. 109, 417 (1985))
Male rats (of the Chbb:Thom strain weighing about 200 g) were killed by a blow to the back of the neck. The brains were removed and dissected on ice. The striata were dissected out, weighed and homogenised in 25 volumes of tris buffer (50 mM tris-HCl, 1 mM EDTA, 5 mM MgCl2 and 1 mM ascorbic acid) for 30 seconds in an Ultra-Turrax at maximum speed, followed by 10 cycles in a Potter-Elvehjem at 1400 rpm. The pellet obtained after centrifuging at 50,000×g at 4° C. for 15 minutes was again taken up in 25 ml of tris buffer and centrifuged under the above conditions. The supernatant was discarded and the pellet obtained was incubated in 25 ml of tris buffer at 37° C. for 30 minutes and then centrifuged again at 50,000×g at 4° C. for 15 minutes. Finally, the pellet obtained was mixed with tris buffer to obtain a homogenate dilution of 1:500 (based on the weight of the striata).
1 ml aliquots of the membrane preparation were incubated with 1 ml of a solution of 0.25 nM [^3 H]-spiperone ([…], Messrs. DuPont NEN) and at increasing concentrations of the test substance (10^-11 to 10^-4 M) at ambient temperature for one hour. Incubation was ended by the addition of 5 ml of ice cold tris buffer and filtration using Whatman GF/B filters. The filters were washed twice, each time with 5 ml of ice cold buffer. The radioactivity of the filters was determined by liquid scintillation measurement in Instagel^(R) (Messrs. Canberra Packard). Non-specific binding was determined in the presence of 10^-5 M haloperidol (Sigma Chemical Co.).
Displacement curves were obtained from the data using the TOPFIT programming package (G. Heinzel in "Pharmacokinetics During Drug Development: Data Analysis and Evaluation Techniques", G. Bozler and J. M. van Rossum Eds., G. Fischer Verlag, Stuttgart 1982, 207).

alpha-2 receptors = target: T1, alpha-2 receptors (Rattus norvegicus, UniProt P22909); assay: affinity for alpha-2 receptors by displacement experiments with [3H]-clonidine (rat cortex membranes); format: binding; conditions: read-out: α2-IC50
T1 sequence (P22909 1-465): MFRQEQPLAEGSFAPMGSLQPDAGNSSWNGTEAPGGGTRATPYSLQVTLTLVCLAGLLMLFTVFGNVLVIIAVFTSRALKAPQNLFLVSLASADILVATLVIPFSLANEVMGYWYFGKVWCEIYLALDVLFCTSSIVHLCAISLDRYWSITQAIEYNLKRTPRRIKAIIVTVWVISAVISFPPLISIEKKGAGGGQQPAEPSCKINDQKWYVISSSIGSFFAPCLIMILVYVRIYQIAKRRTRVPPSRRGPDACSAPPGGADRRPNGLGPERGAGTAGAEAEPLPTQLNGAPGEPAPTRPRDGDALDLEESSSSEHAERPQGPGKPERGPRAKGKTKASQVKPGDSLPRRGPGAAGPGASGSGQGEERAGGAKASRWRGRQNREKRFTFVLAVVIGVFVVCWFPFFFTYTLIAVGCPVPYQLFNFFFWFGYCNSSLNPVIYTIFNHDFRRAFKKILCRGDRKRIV
Procedure: Determination of the affinity for alpha-2 receptors by displacement experiments with [^3 H] clonidine (Modified Method of B. Jarrott, W. J. Louis and R. J. Summers, Biochem. Pharmacol. 27, 141 (1979))
A male rat (Chbb:Thom strain weighing about 200 g) was killed by a blow to the back of the neck. The brain was removed and the cortex dissected out, weighed and homogenised in 25 volumes of tris buffer (50 mM tris- HCl, pH 7.50) for 30 seconds in an Ultra-Turrax at maximum speed, followed by 10° Cycles in a Potter- Elvehjem at 1400 rpm. The homogenised material was combined with tris buffer to obtain a homogenate dilution of 1:50 (based on the weight of the cortex).
1 ml aliquots of the membrane preparation were incubated for three hours at ambient temperature with 1 ml of a solution of 1 nM of [^3 H]-clonidine (2.2 TBq/mmol, Messrs. DuPont NEN) and with increasing concentrations of the test substance (10^-11 to 10^-4 M). Incubation was ended by the addition of 5 ml of ice-cold tris buffer and filtration through Whatman GF/B filters. The filters were washed twice, each time with 5 ml of ice cold buffer. The radioactivity of the filters was determined by liquid scintillation measurement in Instagel(R) (Messrs. Canberra Packard). The non-specific binding was determined in the presence of 10^-5 M of oxymetazoline (Sigma Chemical Co.).

[1] = test system: hypersensitive dopamine receptor; assay: motility triggering in the mouse treated 24 hours earlier with reserpine; format: in vivo; conditions: Mus musculus, sc; reserpine-treated mice, s.c.; read-out: DLi50 (dosage resulting in 50 running pulses every 5 minutes)
Procedure: This test determines predominantly agonistic effects on the hypersensitive dopamine receptor.
Male mice are treated 24 hours before the experiment with 5 mg/kg i.p. reserpine. The animals are kept at 25°-30° C. and treated three times with 2 ml of a 5% glucose solution in tyrode s.c. (the first time when the reserpine is given, the second time in the evening of the pre-treatment day and the third time on the morning of the test day).
[…] (The injection volume is usually 0.1 ml/10 g of body weight). 30 minutes later the groups of animals are placed in the observation cages (measuring 42 x 24 x 8 cm) and fitted with an infrared lightbeam in order to measure their activity. The value measured is the frequency with which a group of 6 mice pass through the infra-red beam within 5 minutes ("running pulses/5 minutes"; mean at n=3; mean±s.e.m. at n=6).
3 to 6 groups are tested for each substance.

MPTP monkeys = assay: post-synaptic dopaminergic activity in MPTP monkeys; format: in vivo, rhesus monkey
Excerpt: 6. Determining the post-synaptic dopaminergic activity in MPTP monkeys (Modified Method of R. S. Burns et al., Proc. Natl. Acad. Sci. 80. 4546 (1983))
The neurotoxin 1-methyl-4-phenyl-1,2,3,6- tetrahydro-pyridine (MPTP) produces in humans and monkeys an irreversible syndrome which in its clinical, pathological, biochemical and pharmacological appearance is very similar to idiopathic Parkinson's disease (Markey et al., Nature 311, 464 (1984)). The reason for this similarity is that MPTP selectively destroys those dopaminergic nerve cells in the substantia nigra of the brain which are also lost by degenerative processes in Parkinson's disease. There is even some discussion that MPTP or an MPTP-like substance might be formed in the body and trigger Parkinson's disease (S. H. Snyder, Nature 311, 514 (1984)). Possibly because of the specific MPTP metabolism, the clinical formation of the MPTP-induced Parkinson syndrome has hitherto been detected only in humans and monkeys. The MPTP model produced in the rhesus monkey is therefore exceptionally suitable for testing the activity of post-synaptically acting dopamine agonists. For this purpose, rhesus monkeys were given MPTP in overall doses of up to about 6 mg/kg of body weight, until the following symptoms appeared: The animals were akinetic and unable to take water and food.
It is clear that with the compounds according to the invention there is no sedative effect or ataxia at a dosage which is several times the MED, which can be put down to the absence of a corresponding activity mediated by the α2- receptors.

Chain of dopamine D2-receptors (P61169 whole entry): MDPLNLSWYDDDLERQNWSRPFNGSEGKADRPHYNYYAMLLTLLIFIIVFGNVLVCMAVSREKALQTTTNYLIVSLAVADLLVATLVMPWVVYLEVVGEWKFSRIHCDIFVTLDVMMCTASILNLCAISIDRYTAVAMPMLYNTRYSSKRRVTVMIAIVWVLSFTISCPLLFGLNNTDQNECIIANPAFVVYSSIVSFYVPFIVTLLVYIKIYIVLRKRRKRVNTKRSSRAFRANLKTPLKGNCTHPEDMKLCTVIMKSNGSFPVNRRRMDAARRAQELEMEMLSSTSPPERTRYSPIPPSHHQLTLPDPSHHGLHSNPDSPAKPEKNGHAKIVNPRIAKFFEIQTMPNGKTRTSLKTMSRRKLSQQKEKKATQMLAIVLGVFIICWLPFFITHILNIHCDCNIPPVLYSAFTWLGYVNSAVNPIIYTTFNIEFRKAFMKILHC

| Compound | Ki (dopamine D2-receptors; [3H]-spiperone, high-affinity form of the dopamine receptor) | α2-IC50 / D2-Ki (dopamine D2-receptors; relative affinity for dopamine-D2 receptors compared with α2-adrenoceptors, the higher, the higher the D2/α2 selectivity) | IC50 (alpha-2 receptors) | ED (50 running pulses/5 min) [1] | Duration of activity (MPTP monkeys; 0.05 mg/kg i.m. (MED)) | Side effects (MPTP monkeys; 0.05 mg/kg i.m. (MED)) | Duration of activity (MPTP monkeys; 3.00 mg/kg i.m.) | minimal effective dose (MPTP monkeys; Primates, in Macaca mulatta, im, rhesus monkeys, i.m., read-out: minimum dose (MED) required to alleviate the Parkinson's symptoms) |
| --- | --- | --- | --- | --- | --- | --- | --- | --- |
| Nc1nc2c(s1)CCN(CC=Cc1ccccn1)CC2 [Example 11a, 2-Amino-6-(3-(2-pyridyl)allyl)-4,5,7,8-tetrahydro-6H-thiazolo[5,4-d]azepin] | 4.3 nM | 176 | 760 nM | 0.35 mg/kg | 1.5 to 2 h | none | 5 h | 0.05 mg/kg |
| Nc1nc2c(s1)CCN(CC=Cc1cccnc1)CC2 [Example 11b, 2-Amino-6-(3-(3-pyridyl)allyl)-4,5,7,8-tetrahydro-6H-thiazolo[5,4-d]azepine] | – | – | – | 0.29 mg/kg | – | – | – | – |
